Reference: patent US11040035B2, “3-oxo-2,6-diphenyl-2,3-dihydropyridazine-4-carboxamides” (BAYER PHARMA AKTIENGESELLSCHAFT, priority 2016, dated 2021)

What follows are compounds tested against T1, AHR (Homo sapiens, UniProt P35869) (assay: In vitro assay 1: antagonism in human cell line (transactivation assay, kynurenic acid prestimulated)). Conditions: Assay 1: AHR-luc Hum Antagonism IC50 [M], 150 μM kynurenic acid, 20 hours, firefly luciferase.
T1 sequence (P35869 11-848): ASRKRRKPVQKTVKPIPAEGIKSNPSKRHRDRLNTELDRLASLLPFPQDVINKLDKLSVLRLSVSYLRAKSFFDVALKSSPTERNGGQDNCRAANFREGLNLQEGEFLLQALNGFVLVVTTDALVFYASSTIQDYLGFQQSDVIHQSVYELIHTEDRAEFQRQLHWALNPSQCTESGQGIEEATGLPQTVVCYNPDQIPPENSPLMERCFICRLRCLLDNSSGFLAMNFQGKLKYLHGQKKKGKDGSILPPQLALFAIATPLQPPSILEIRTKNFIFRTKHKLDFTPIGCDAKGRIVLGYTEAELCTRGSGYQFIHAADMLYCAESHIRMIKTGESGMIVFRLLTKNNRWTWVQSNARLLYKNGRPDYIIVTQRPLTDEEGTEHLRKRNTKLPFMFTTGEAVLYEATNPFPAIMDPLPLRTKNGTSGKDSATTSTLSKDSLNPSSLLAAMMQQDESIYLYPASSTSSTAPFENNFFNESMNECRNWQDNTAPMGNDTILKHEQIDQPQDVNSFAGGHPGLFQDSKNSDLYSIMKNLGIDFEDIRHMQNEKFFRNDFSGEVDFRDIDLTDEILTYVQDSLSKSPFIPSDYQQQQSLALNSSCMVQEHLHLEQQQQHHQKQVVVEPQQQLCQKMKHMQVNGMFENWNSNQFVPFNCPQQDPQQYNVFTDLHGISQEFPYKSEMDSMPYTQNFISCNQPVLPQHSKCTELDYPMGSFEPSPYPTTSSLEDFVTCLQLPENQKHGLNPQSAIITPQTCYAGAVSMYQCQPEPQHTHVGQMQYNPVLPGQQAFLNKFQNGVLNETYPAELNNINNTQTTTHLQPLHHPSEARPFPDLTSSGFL
Method: Transactivation assays were carried out in U87 glioblastoma cells (ATCC) endogenously expressing AHR. In addition the cells were stably transfected with an AHR inducible firefly luciferase reporter gene construct that carried AHR-binding sites (DRE) in its promoter and a renilla reporter gene construct with constitutively active promoter. Kynurenic acid is an endogenous AHR activating ligand and was used to prestimulate test cells prior to testing the antagonistic properties of compounds.
In Vitro Assay 1: Antagonism in Human Cell Line
Cells in medium (tryptophan free RPMI, 1% FCS, 2 mM Glutamine) supplemented with 150 μM kynurenic acid were grown for 20 hours in absence (negative control) or presence of increasing concentrations of test compounds (typical dilutions: 72 pmol/L, 0.25 nmol/L, 0.89 nmol/L; 3.1 nmol/L, 11 nmol/L, 38 nmol/L, 130 nmol/L, 470 nmol/L, 1.6 μmol/L, 5.7 μmol/L and 20 μmol/L in duplicates). As positive inhibition control cells supplemented with 150 μM kynurenic acid were incubated in presence of 5 μM Staurosporin. Normalization was done by positive and negative controls.
Firefly luciferase and Renilla activity was determined by the DualGlo Luciferase Assay System (Promega, #2920).

| IC50 [M] | Compound |
| --- | --- |
| > 2e-05 | CC(NC(=O)c1cc(-c2ccc(C(F)(F)F)cc2)nn(-c2cccc(F)c2)c1=O)C(O)C(F)(F)F (single isomer, unassigned) [Example 268, Isomer no. 1 of 2-(3-fluorophenyl)-3-oxo-N-(4,4,4-trifluoro-3-hydroxybutan-2-yl)-6-[4-(trifluoromethyl)phenyl]-2,3-dihydropyridazine-4-carboxamide] |
| 1.77e-07 | O=C(NC(CO)C1CCCO1)c1cc(-c2ccc(Cl)cc2)nn(-c2cccc(F)c2)c1=O (single isomer, unassigned) [Example 317, 1,4-anhydro-5-({[6-(4-chlorophenyl)-2-(3-fluorophenyl)-3-oxo-2,3-dihydropyridazin-4-yl]carbonyl}amino)-2,3,5-trideoxyhexitol] |
| 5.34e-08 | O=C(NC(CO)C1CCCO1)c1cc(-c2ccc(Cl)cc2)nn(-c2cccc(F)c2)c1=O (single isomer, unassigned) [Example 318, 1,4-anhydro-5-({[6-(4-chlorophenyl)-2-(3-fluorophenyl)-3-oxo-2,3-dihydropyridazin-4-yl]carbonyl}amino)-2,3,5-trideoxyhexitol] |
| 5.02e-08 | O=C(NC(CO)C1CCCO1)c1cc(-c2ccc(Cl)cc2)nn(-c2cccc(F)c2)c1=O (single isomer, unassigned) [Example 319, 1,4-anhydro-5-({[6-(4-chlorophenyl)-2-(3-fluorophenyl)-3-oxo-2,3-dihydropyridazin-4-yl]carbonyl}amino)-2,3,5-trideoxyhexitol] |
| 2e-08 | O=C(NC(CO)C1CCCO1)c1cc(-c2ccc(C(F)(F)F)cc2)nn(-c2cccc(F)c2)c1=O (single isomer, unassigned) [Example 353, 1,4-anhydro-2,3,5-trideoxy-5-[({2-(3-fluorophenyl)-3-oxo-6-[4-(trifluoromethyl)phenyl]-2,3-dihydropyridazin-4-yl}carbonyl)amino]hexitol] |
| 1.41e-08 | O=C(NC(CO)C1CCCO1)c1cc(-c2ccc(C(F)(F)F)cc2)nn(-c2cccc(F)c2)c1=O (single isomer, unassigned) [Example 354, 1,4-anhydro-2,3,5-trideoxy-5-[({2-(3-fluorophenyl)-3-oxo-6-[4-(trifluoromethyl)phenyl]-2,3-dihydropyridazin-4-yl}carbonyl)amino]hexitol] |
| 1.2e-07 | O=C(NC(CO)C1CCCO1)c1cc(-c2ccc(C(F)(F)F)cc2)nn(-c2cccc(F)c2)c1=O (single isomer, unassigned) [Example 355, 1,4-anhydro-2,3,5-trideoxy-5-[({2-(3-fluorophenyl)-3-oxo-6-[4-(trifluoromethyl)phenyl]-2,3-dihydropyridazin-4-yl}carbonyl)amino]hexitol] |
| 6.06e-08 | COCCC(CO)NC(=O)c1cc(-c2ccc(C(F)(F)F)cc2)nn(-c2cccc(F)c2)c1=O (single isomer, unassigned; (+)) [Example 332, (+)-2-(3-fluorophenyl)-N-(1-hydroxy-4-methoxybutan-2-yl)-3-oxo-6-[4-(trifluoromethyl)phenyl]-2,3-dihydropyridazine-4-carboxamide] |
| 1.81e-07 | Cc1ccc(-c2cc(C(=O)N[C@H](C)CO)c(=O)n(-c3cccc(F)c3)n2)cc1 [Example 9, 2-(3-Fluorophenyl)-N-[(2R)-1-hydroxypropan-2-yl]-6-(4-methylphenyl)-3-oxo-2,3-dihydropyridazine-4-carboxamide] |
| 3.91e-07 | Cc1ccc(-c2cc(C(=O)NCCO)c(=O)n(-c3cccc(F)c3)n2)cc1 [Example 19, 2-(3-Fluorophenyl)-N-(2-hydroxyethyl)-6-(4-methylphenyl)-3-oxo-2,3-dihydropyridazine-4-carboxamide] |
| 8.39e-08 | CC(CO)NC(=O)c1cc(-c2ccc(Cl)cc2)nn(-c2cccc(F)c2)c1=O (centres unmarked) [Example 22, 6-(4-Chlorophenyl)-2-(3-fluorophenyl)-N-(1-hydroxypropan-2-yl)-3-oxo-2,3-dihydropyridazine-4-carboxamide] |
